Test results published in patent publication US20240018121A1, “NOVEL HETEROAROMATIC COMPOUNDS EXHIBITING ANTIFUNGAL ACTIVITY AND THEIR METHOD OF USE” (FOX CHASE CHEMCIAL DIVERSITY CENTER, INC., priority 2020, published 2024).
Values after ≈ are worked out from the molar mass of the structure shown. Where a name gives a salt, the structure may show the parent alone. Read-outs that look alike come from different tables or passages of the source.

Tests used:
Format in all cases: cell-based
[1] = system: Mucor ramosissimus 057718 (ATCC 90286); assay: Fungal MIC Protocol, Mucor ramosissimus (MIC-50); conditions: Mucor ramosissimus, read-out: MIC-50 Mucorales ramosissimus 90286
Method in brief: (§1)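 Spores from PDA cultures (Aspergillus, Fusarium at 35 °C; Mucor at room temperature) diluted in RPMI/MOPS pH 7.0 to ~2×10^4 cfu/mL. Ten serial dilutions starting from 200 ug/mL in medium (before 1:1 mixing with spores), in duplicate; 48 h at 35 °C. MIC is the lowest concentration giving >50% visually scored growth inhibition.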

[2] = system: Candida albicans GDH2346; assay: Candida Minimal Inhibitory Concentration (MIC); conditions: Candida albicans, read-out: MIC-50 Candida albicans GDH2346
Method in brief: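 Twofold serial dilutions from 200 μg/mL in RPMI 1640/MOPS with glucose, pH 7.0, tested in duplicate against yeast from an OD600 1.0 suspension diluted 1:1000. Incubated at 35° C; OD600 read at 24 and 48 h.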

[3] = system: Aspergillus fumigatus T33439 (ATCC MYA-3626); assay: Fungal MIC Protocol, Aspergillus fumigatus; conditions: Aspergillus fumigatus, read-out: MIC Aspergillus fumigatus 3626
Method in brief: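 Aspergillus fumigatus was grown on Potato Dextrose Agar at 35° C. for 3-5 days, and spores were collected with PBS pH 7.4+0.1% Tween-20 plus glass beads. Spores were diluted in RPMI/MOPS to OD530 0.002 (about 2×10^4 cfu/mL). 50 ul was added to 50 μl of serially diluted compound in round bottom 96-well plates, run in duplicate, and incubated at 35° C. for 48 hours.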

[4] = system: Mucor circinelloides 1463(62) (ATCC 26759); assay: Fungal MIC Protocol, Mucor circinelloides (MIC-50); conditions: Mucor circinelloides, read-out: MIC-50 Mucorales circinelloides 26579
Method in brief: as §1

[5] = system: Fusarium falciforme FS1 (ATCC MYA-3636); assay: Fungal MIC Protocol, Fusarium falciforme; conditions: Fusarium falciforme, read-out: MIC Fusarium falciforme 3636
Method in brief: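 Fusarium falciforme spores were raised on Potato Dextrose Agar at 35° C. for 3-5 days, collected in PBS pH 7.4+0.1% Tween-20 with glass beads, and diluted in RPMI/MOPS pH 7.0 to OD530 0.005 (about 2×10^4 cfu/mL). 50 ul spores were added to 50 μl duplicate serial compound dilutions in round bottom 96-well plates and incubated at 35° C. for 48 hours.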

[6] = system: Aspergillus flavus AFL1 (ATCC MYA-3631); assay: Fungal MIC Protocol, Aspergillus flavus; conditions: Aspergillus flavus, read-out: MIC Aspergillus flavus 3631
Method in brief: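 Aspergillus flavus spores were grown on Potato Dextrose Agar at 35° C. for 3-5 days, harvested in PBS pH 7.4+0.1% Tween-20 with glass beads, and diluted in RPMI/MOPS to an OD530 of 0.002 (about 2×10^4 cfu/mL). 50 ul of spores were combined with 50 μl of serially diluted compound in 96-well round bottom plates and incubated at 35° C. for 48 hours.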

[7] = system: Fusarium solani (ATCC 58877); assay: Fungal MIC Protocol, Fusarium solani; conditions: Fusarium solani, read-out: MIC Fusarium solani 58877
Method in brief: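 Fusarium solani spores were grown on Potato Dextrose Agar in tissue culture flasks at 35° C. for 3-5 days, harvested with PBS pH 7.4+0.1% Tween-20 and glass beads, and diluted in RPMI/MOPS to an OD530 of 0.005 (about 2×10^4 cfu/mL). Equal 50 ul volumes of spores and serially diluted compound were combined in 96-well round bottom plates and incubated 48 hours at 35° C.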

[8] = ATCC90286, 50% growth inhibition at 48 hours
[9] = GDH2346, 50% growth inhibition at 48 hours
[10] = 100% growth inhibition at 48 hours
[11] = ATCC26759, 50% growth inhibition at 48 hours
[12] = ATCC58877, 100% growth inhibition at 48 hours

SMILES | MIC50 [1, 8] [µg/mL] | MIC50 [2, 9] [µg/mL] | MIC [3, 10] [µg/mL] | MIC50 [4, 11] [µg/mL] | MIC [5, 10] [µg/mL] | MIC [6, 10] [µg/mL] | MIC [7, 12] [µg/mL] | MIC50 ([1]; ATCC90286, 48 h) [µg/mL] | MIC50 ([2]; GDH2346, 48 h) [µg/mL] | MIC ([3]; 48 h) [µg/mL] | MIC50 ([4]; ATCC26759, 48 h) [µg/mL] | MIC ([5]; 48 h) [µg/mL] | MIC ([6]; 48 h) [µg/mL] | MIC ([7]; ATCC58877, 48 h) [µg/mL]
N=C(N)N1CC=C(c2ccc(-c3nnc(-c4ccc(C5=CCN(C(=N)N)CC5)cc4F)o3)cc2)CC1 [Example 50, 4-(4-(5-(4-(1-Carbamimidoyl-1,2,3,6-tetrahydropyridin-4-yl)-2-fluorophenyl)-1,3,4-oxadiazol-2-yl)phenyl)-5,6-dihydropyridine-1(2H)-carboximidamide] | 25 (≈ 51.4 µM) | 0.78 (≈ 1.6 µM) | 0.78 (≈ 1.6 µM) | 50 (≈ 103 µM) | < 0.1 | 0.39 (≈ 0.802 µM) | 1.56 (≈ 3.21 µM) |  |  |  |  |  |  | 
Cc1cc(C2=CCN(C(=N)N)CC2)ccc1-c1nnc(-c2ccc(C3=CCN(C(=N)N)CC3)cc2C)n1C [Example 22, 4,4′-(4,4′-(4-Methyl-4H-1,2,4-triazole-3,5-diyl)bis(3-methyl-4,1-phenylene))bis(5,6-dihydropyridine-1(2H)-carboximidamide)] | 6.25 (≈ 12.3 µM) | 0.16 (≈ 0.314 µM) | 0.78 (≈ 1.53 µM) | 1.56 (≈ 3.06 µM) | 0.78 (≈ 1.53 µM) | 0.39 (≈ 0.765 µM) | 0.2 (≈ 0.392 µM) |  |  |  |  |  |  | 
COCCn1c(-c2ccc(C3=CCN(C(=N)N)CC3)cc2)nnc1-c1ccc(C2=CCN(C(=N)N)CC2)cc1 [Example 67, 4-(4-{5-[4-(1-carbamimidoyl-1,2,3,6-tetrahydropyridin-4-yl)phenyl]-4-(2-methoxyethyl)-4H-1,2,4-triazol-3-yl}phenyl)-1,2,3,6-tetrahydropyridine-1-carboximidamide trifluoroacetate] |  |  |  |  |  |  |  | 1.56 | 0.2 | 0.1 | 0.39 | 0.05 | 0.1 | 0.05
N=C(N)N1CC=C(c2ccc(-c3nnc(-c4ccc(C5=CCN(C(=N)N)CC5)cc4)o3)cc2)CC1 [Example 41, 4-(4-{5-[4-(1-Carbamimidoyl-1,2,3,6-tetrahydropyridin-4-yl)phenyl]-1,3,4-oxadiazol-2-yl}phenyl)-1,2,3,6-tetrahydropyridine-1-carboximidamide] | 100 (≈ 213 µM) | 0.39 (≈ 0.832 µM) | 3.13 (≈ 6.68 µM) | 100 (≈ 213 µM) | 0.39 (≈ 0.832 µM) | 3.13 (≈ 6.68 µM) | 6.25 (≈ 13.3 µM) |  |  |  |  |  |  | 
COCCn1c(-c2ccc(C3=CCC(C(=N)N)CC3)cc2F)nnc1-c1ccc(C2=CCC(C(=N)N)CC2)cc1F.O=C(O)C(F)(F)F (stereo not drawn) [Example 86, 4-(4-{5-[4-(4-carbamimidoylcyclohex-1-en-1-yl)-2-fluorophenyl]-4-(2-methoxyethyl)-4H-1,2,4-triazol-3-yl}-3-fluorophenyl)cyclohex-3-ene-1-carboximidamide trifluoroacetate] | 6.25 | 0.78 | 0.78 | 1.56 | 0.78 | 0.78 | 0.2 |  |  |  |  |  |  | 
N=C(N)N1CC=C(c2ccc(-c3nnc(-c4ccc(C5=CCN(C(=N)N)CC5)cc4F)o3)c(F)c2)CC1 [Example 48] | 6.25 (≈ 12.4 µM) | 1.56 (≈ 3.09 µM) | 0.78 (≈ 1.55 µM) | 0.78 (≈ 1.55 µM) | < 0.1 | 0.78 (≈ 1.55 µM) | 3.13 (≈ 6.2 µM) |  |  |  |  |  |  | 
Cc1cc(-n2cc(-c3ccc(C4=CCN(C(=N)N)CC4)cc3)nn2)ccc1C1=CCN(C(=N)N)CC1 [Example 35, 4-(4-(1-(4-(1-Carbamimidoyl-1,2,3,6-tetrahydropyridin-4-yl)-3-methylphenyl)-1H-1,2,3-triazol-4-yl)phenyl)-5,6-dihydropyridine-1(2H)-carboximidamide] | 25 (≈ 51.9 µM) | 0.39 (≈ 0.81 µM) | 1.56 (≈ 3.24 µM) | 0.39 (≈ 0.81 µM) | < 0.1 | 0.39 (≈ 0.81 µM) | 1.56 (≈ 3.24 µM) |  |  |  |  |  |  | 
CNc1cc(C2=CCN(C(=N)N)CC2)cc(F)c1-c1nnc(-c2ccc(C3=CCN(C(=N)N)CC3)cc2)n1C [Example 23, 4-(4-(5-(4-(1-Carbamimidoyl-1,2,3,6-tetrahydropyridin-4-yl)-2-fluoro-6-(methylamino)phenyl)-4-methyl-4H-1,2,4-triazol-3-yl)phenyl)-5,6-dihydropyridine-1(2H)-carboximidamide] | 1.56 (≈ 2.95 µM) | 0.39 (≈ 0.738 µM) | 0.39 (≈ 0.738 µM) | 0.39 (≈ 0.738 µM) | 0.39 (≈ 0.738 µM) | 0.78 (≈ 1.48 µM) | 0.2 (≈ 0.378 µM) |  |  |  |  |  |  | 
Cc1cc(C2=CCN(C(=N)N)CC2)ccc1-c1nnc(-c2ccc(C3=CCN(C(=N)N)CC3)cc2)n1C [Example 21, 4-(4-(5-(4-(1-Carbamimidoyl-1,2,3,6-tetrahydropyridin-4-yl)-2-methylphenyl)-4-methyl-4H-1,2,4-triazol-3-yl)phenyl)-5,6-dihydropyridine-1(2H)-carboximidamide] | 6.25 (≈ 12.6 µM) | 0.3 (≈ 0.605 µM) | 0.2 (≈ 0.404 µM) | 3.13 (≈ 6.32 µM) | 0.2 (≈ 0.404 µM) | 0.39 (≈ 0.787 µM) | 0.2 (≈ 0.404 µM) |  |  |  |  |  |  | 
Cc1cc(-n2nnc(-c3ccc(C4=CCN(C(=N)N)CC4)cc3)c2C)ccc1C1=CCN(C(=N)N)CC1 [Example 33, 4-(4-{4-[4-(1-Carbamimidoyl-1,2,3,6-tetrahydropyridin-4-yl)phenyl]-5-methyl-1H-1,2,3-triazol-1-yl}-2-methylphenyl)-1,2,3,6-tetrahydropyridne-1-carboximidamide] | 12.5 (≈ 25.2 µM) | 0.08 (≈ 0.161 µM) | 0.63 (≈ 1.27 µM) | 3.13 (≈ 6.32 µM) | 0.05 (≈ 0.101 µM) | 0.04 (≈ 0.0807 µM) | 0.025 (≈ 0.0504 µM) |  |  |  |  |  |  | 
CC(C)Cn1c(-c2ccc(C3=CCN(C(=N)N)CC3)cc2F)nnc1-c1ccc(C2=CCN(C(=N)N)CC2)cc1F [Example 14] | 1.56 (≈ 2.79 µM) | 0.39 (≈ 0.697 µM) | < 0.1 | < 0.1 | < 0.1 | < 0.1 | 6.25 (≈ 11.2 µM) |  |  |  |  |  |  | 
Cc1c(-c2ccc(C3=CCN(C(=N)N)CC3)cc2)nnn1-c1ccc(C2=CCN(C(=N)N)CC2)cc1 [Example 31, 4-(4-{1-[4-(1-Carbamimidoyl-1,2,3,6-tetrahydropyridin-4-yl)phenyl]-5-methyl-1H-1,2,3-triazol-4-yl}phenyl)-1,2,3,6-tetrahydropyridine-1-carboximidamide] | 1.56 (≈ 3.24 µM) | 0.1 (≈ 0.208 µM) | < 0.05 | 0.78 (≈ 1.62 µM) | < 0.05 | < 0.05 | < 0.05 |  |  |  |  |  |  | 
